Like-named read-outs stand apart in the source and are kept apart here.
What was measured:
[1] = test system: 5-hLOX; design: method as in Sadik et al., 2003; conditions: known flavonoid inhibitors of 5-hLOX; ref Sadik et al., 2003; cited from earlier work
[2] = biological target: T1, 15 soybean lipoxygenase (15-sLOX) (Glycine max, UniProt P08170); assay: In vitro assay of 15 soybean lipoxygenase inhibition; assay type: biochemical
T1 construct: purchased Cayman Chemical 60712
T1 sequence (P08170 1-839): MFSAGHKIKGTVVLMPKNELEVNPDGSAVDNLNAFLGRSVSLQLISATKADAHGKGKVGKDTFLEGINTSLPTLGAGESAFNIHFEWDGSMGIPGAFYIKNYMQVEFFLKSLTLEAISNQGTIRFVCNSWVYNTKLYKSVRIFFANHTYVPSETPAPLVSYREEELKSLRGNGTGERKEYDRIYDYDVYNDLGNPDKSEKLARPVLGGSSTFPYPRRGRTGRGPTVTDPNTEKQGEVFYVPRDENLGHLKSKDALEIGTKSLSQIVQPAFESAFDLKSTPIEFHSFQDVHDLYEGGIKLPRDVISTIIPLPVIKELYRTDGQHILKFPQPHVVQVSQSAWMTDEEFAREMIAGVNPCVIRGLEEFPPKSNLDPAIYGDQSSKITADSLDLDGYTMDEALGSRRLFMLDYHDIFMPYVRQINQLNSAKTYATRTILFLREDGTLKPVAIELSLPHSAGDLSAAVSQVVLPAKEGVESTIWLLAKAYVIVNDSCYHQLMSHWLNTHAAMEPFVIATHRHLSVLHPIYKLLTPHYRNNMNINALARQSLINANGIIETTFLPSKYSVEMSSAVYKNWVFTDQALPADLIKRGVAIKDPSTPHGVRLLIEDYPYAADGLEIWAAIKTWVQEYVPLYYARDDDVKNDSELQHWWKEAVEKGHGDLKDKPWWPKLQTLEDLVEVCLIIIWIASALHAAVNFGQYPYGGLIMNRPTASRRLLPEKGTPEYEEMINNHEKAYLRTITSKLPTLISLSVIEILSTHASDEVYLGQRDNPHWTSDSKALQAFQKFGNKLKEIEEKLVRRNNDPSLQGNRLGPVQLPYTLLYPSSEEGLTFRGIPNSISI
Procedure: Assays of inhibition of 15-sLOX were performed using a previous published methodology ([Tirapegui et al., 2017]), with minor modifications. In shortly, the activity of 15-sLOX (Cayman Chemical Item No. 60712) was determined following the formation of reaction products at 234 nm (ε = 25,000 M^−1cm^−1) with a Perkin-Elmer Lambda 25 UV/Vis (LabMakelaar Benelux B.V. Zuid-Holland, Nederland). All reactions were performed at a final volume of 2 ml and stirred using a magnetic bar at room temperature. The reaction medium used contained 0.1 M HEPES buffer (pH 7.4), Triton X-100 0.01%, and the linoleic acid substrate at a 10 μM concentration determine preliminary percent inhibition (% I). The concentration was determined quantitatively by allowing the enzymatic reaction to go to completion. The reaction was carried out by adding the inhibitor (sample) in methanol to the cuvette with the substrate buffer, and finally the enzyme was added. Nordihydroguaiaretic acid was used as positive control. Assays were performed in duplicate on two different days. IC50 values were determined by measuring enzyme activity at different concentrations of inhibitor dissolved in methanol; in the range of the initial velocity of the enzyme reaction. Finally, the inhibition% vs. the inhibitor concentration was plotted, giving a hyperbolic saturation curve using GraphPad Prism Demo.

[3] = biological target: T2, 5 human lipoxygenase (5-hLOX) (Homo sapiens, UniProt P09917); assay: In vitro assay of 5 human lipoxygenase inhibition; assay type: biochemical
T2 construct: purchased Cayman Chemical 60402
T2 sequence (P09917 1-674): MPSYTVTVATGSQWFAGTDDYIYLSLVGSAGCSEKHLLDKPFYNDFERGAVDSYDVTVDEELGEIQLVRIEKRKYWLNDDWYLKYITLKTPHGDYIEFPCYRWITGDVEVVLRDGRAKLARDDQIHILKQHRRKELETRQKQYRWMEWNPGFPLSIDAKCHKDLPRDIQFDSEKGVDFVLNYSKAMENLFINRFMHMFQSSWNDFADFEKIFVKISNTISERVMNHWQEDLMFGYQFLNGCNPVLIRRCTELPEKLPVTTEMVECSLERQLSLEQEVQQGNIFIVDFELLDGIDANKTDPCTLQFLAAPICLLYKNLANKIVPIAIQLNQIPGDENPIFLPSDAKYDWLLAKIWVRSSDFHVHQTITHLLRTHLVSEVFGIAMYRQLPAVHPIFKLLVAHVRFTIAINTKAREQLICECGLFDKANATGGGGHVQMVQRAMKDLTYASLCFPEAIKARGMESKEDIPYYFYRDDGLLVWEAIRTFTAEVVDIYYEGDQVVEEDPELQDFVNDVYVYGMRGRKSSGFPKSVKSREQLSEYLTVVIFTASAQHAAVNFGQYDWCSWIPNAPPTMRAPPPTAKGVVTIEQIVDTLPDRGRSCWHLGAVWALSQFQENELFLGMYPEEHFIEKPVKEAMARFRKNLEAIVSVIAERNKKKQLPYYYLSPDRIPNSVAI
Procedure: Assays of inhibition of 5-hLOX were performed using a previous published methodology ([Vásquez-Martínez et al., 2019]), with minor modifications. In shortly, the enzyme (Cayman Chemical Item No. 60402) was diluted (1:500) in the assay buffer (HEPES 50 mM, EDTA 2 mM, ATP 10 μM and CaCl2 10 μM at pH 7.5) and mixed with 10 μM of 2′,7′-dichlorofluorescin diacetate (H2DCFDA) dye. The reaction mixture was incubated for 15 min in the assay plate. Subsequently, 33.3 μl of assay buffer was added per well, and 3.3 μl of inhibitor was added to a final concentration of 10 μM; this reaction mixture was incubated for 30 min. The reaction was started by addition of AA (3.3 μM) and was incubated for 1 h and fluorescence was read in a multimode detector Synergy™ HT Multi-Mode Microplate Reader (Biotek, Winooski, VT, United States) at 480 nm excitation/ 520 nm emission after a reaction that had proceeded for 1 h at room temperature. The IC50 values were obtained using the nonlinear curve- fitting program of Graph Pad Prism Demo.

[4] = class symbol NA, read-out: IC50 5-hLOX Inhibition

SMILES	IC50 [1] [µM]	IC50 [2] [µM]	IC50 [3] [µM]	IC50 [3, 4] [µM]
Oc1cc(O)c2c(c1)O[C@H](c1ccc(O)c(O)c1)[C@H](O)C2 [(−)-epicatechin]	22			
O=C(O[C@@H]1Cc2c(O)cc(O)cc2O[C@@H]1c1cc(O)c(O)c(O)c1)c1cc(O)c(O)c(O)c1 [(−)-epigallocatechin gallate]	3.1			
CCCC/C=C\CCCCCCCCCc1cccc(O)c1O [Compound 2, 3-[(10Z)-pentadec-10′-en-1-yl]-catechol]		54.8	2.09	
CCCCCCCCCCCCCCCc1cccc(O)c1O [Compound 3, 3-n-pentadecylcatechol]		55.3	2.74	
CCCCC=CCCCCCCCCCc1cccc(OC(C)=O)c1OC(C)=O [Compound 4]		> 124		> 124
CCCCCCCCCCCCCCCc1cccc(OC(C)=O)c1OC(C)=O [Compound 5]		> 124		> 124
O=c1c(O)c(-c2ccc(O)c(O)c2)oc2cc(O)cc(O)c12 [quercetin]	0.6			
